Reference: paper PMC5626944 (Frontiers in Pharmacology, 2017)
Like-named read-outs stand apart in the source and are kept apart here.

Columns and labels:
[1] = 0.2 mg/kg ip; for [TC299423] in assay: brain; for Blood measurements: [TC299423]: serum
Method: Uninjected mice served as controls (n = 3 for each group). Trunk blood was collected into heparinized 1.5 mL polyethylene tubes. The tubes were centrifuged and the serum was collected. […] The cerebral cortex was dissected, placed in 1 mL of cold water, homogenized, and diluted to 3 mL with cold water. Epibatidine saturation curves were constructed for the cortical samples using eight concentrations of [^125I]epibatidine measured in triplicate (6, 12, 25, 50, 100, 200, 400, and 800 pM). The final assay volume was […] 50 μL of homogenate was added to each sample. Blanks included 100 μM nicotine. Samples were incubated at room temperature overnight. The samples were filtered, washed and counted. Inhibition of [^125I]epibatidine (325 pM) binding was measured by adding 1, 2, 5, 10, or 20 μL of serum to samples. The washed, particulate fraction from C57BL/6 cortex was the source of the binding sites.

[2] = tested on: Calcium Channel, Type N; test: NovaScreen competition binding; conditions: 1 µM
[3] = tested on: CYP1A2; test: Turnover by recombinantly expressed human cytochrome P450 isoforms; assay type: in vitro ADME; conditions: 100 pmol/mL enzyme, 37 °C
Method: (§1) S2 Table. In vitro metabolism of TC299423, compared w ith varenicline.
(§2) Human Rat microsomes Turnover by human cytochrome P450 isoforms […]
(§3) The assay mixtures (final incubation volume of 125 μL) in 0.255 M phosphate buffer with 0.575% (w/v) KCl (pH 7.4) contained PiB (1.0 μM), […] a recombinantly expressed cytochrome P450 enzyme preparation (1A2, 2C9, 2C19, 2D6, 3A4, and FMO3) at 100 pmol/mL. After a 10 min preincubation at 37 °C, the reaction was initiated by addition of 2.0 mM NADPH and incubated for 60 min. The reactions were terminated by the addition of two volumes of DMSO. Samples were subsequently centrifuged at 4,000 rpm for 10 min. From the resulting supernatant, 10 μ L was analyzed by liquid chromatography/tandem mass spectrometry (LC-MS/MS). Control experiments were performed by substituting the active enzyme preparation by cell preparations containing no recombinant human CYP. a, Data for clearance are given as μL /min/mg protein. […]
(§4) c, Data for cytochrome P450 turnover and for human flavin- containing monooxygenase 3 (FMO3) are given as percent decline over 60 min.

[4] = tested on: CYP2C19; test: as above; assay type: in vitro ADME; conditions: 100 pmol/mL enzyme, 37 °C
Method: as §1, §2, §3, §4

[5] = tested on: CYP3A4; test: as above; assay type: in vitro ADME; conditions: 100 pmol/mL enzyme, 37 °C
Method: as §1, §2, §3, §4

[6] = tested on: CYP2C9; test: as above; assay type: in vitro ADME; conditions: 100 pmol/mL enzyme, 37 °C
Method: as §1, §2, §3, §4

[7] = tested on: CYP2D6; test: as above; assay type: in vitro ADME; conditions: 100 pmol/mL enzyme, 37 °C
Method: as §1, §2, §3, §4

[8] = In vitro metabolism in microsomes; assay type: in vitro ADME; conditions: rat microsomes
[9] = In vitro metabolism in microsomes; assay type: in vitro ADME; conditions: human microsomes
[10] = tested on: Sigma 1; test: NovaScreen competition binding; conditions: 1 µM
[11] = tested on: T1, GABA-B; test: NovaScreen competition binding; conditions: 1 µM
T1 construct: PerkinElmer – Caliper Life Sciences (NovaScreen)

[12] = molecular target: α4β2* nAChRs (Mus musculus, UniProt O70174+Q9ERK7); test: [125I]epibatidine binding, cortical membranes; parameters: from tissue; host or cells: cortical brain membranes (mouse)
Sequence of α4β2* nAChRs (O70174 31-629): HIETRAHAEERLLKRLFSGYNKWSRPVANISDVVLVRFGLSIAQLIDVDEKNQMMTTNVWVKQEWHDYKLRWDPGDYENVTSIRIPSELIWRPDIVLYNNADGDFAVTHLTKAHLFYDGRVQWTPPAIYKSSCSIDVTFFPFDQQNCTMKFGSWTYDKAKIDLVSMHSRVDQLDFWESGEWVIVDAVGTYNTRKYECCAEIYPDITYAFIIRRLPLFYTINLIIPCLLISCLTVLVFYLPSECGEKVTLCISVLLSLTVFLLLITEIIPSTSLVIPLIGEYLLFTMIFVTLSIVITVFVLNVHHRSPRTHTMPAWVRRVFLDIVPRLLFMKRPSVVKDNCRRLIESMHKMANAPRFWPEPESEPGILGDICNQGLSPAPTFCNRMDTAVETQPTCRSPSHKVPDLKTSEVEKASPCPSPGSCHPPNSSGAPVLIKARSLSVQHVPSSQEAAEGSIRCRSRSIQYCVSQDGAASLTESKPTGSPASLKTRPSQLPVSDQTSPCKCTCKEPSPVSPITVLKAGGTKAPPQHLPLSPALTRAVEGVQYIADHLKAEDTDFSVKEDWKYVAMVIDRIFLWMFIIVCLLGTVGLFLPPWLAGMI
Sequence of α4β2* nAChRs (Q9ERK7 26-501): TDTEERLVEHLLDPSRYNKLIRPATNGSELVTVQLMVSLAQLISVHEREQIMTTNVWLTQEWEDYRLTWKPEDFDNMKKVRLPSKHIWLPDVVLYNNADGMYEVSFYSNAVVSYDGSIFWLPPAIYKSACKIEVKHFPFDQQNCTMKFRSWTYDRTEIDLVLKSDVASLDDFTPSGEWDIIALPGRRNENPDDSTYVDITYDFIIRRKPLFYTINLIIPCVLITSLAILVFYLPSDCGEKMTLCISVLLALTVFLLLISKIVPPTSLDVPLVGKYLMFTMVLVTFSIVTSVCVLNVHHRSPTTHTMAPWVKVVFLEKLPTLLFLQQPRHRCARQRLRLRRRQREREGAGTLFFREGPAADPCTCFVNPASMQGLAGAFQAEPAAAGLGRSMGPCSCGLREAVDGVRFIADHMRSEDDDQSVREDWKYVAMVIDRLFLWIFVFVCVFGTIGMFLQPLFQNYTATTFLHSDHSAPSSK
Method: Brain membrane preparations were stored as pellets under buffer at -70°C or used immediately.

[13] = tested on: Adrenergic, Beta 2 (h); test: NovaScreen competition binding; parameters: species or system human; conditions: 1 µM
[14] = Pharmacokinetics in mice, plasma and brain by LC-MS/MS; assay type: in vivo, mouse; conditions: for half-life / Tmax: both sexes, mouse, plasma; for Tmax: read-out: Time of maximum plasma concentration
Method: Pharmacokinetic experiments with TC299423 were performed by Absorption Systems LP (Exton, PA, United States). […] Blood samples were taken and the brains were harvested 5 min, 15 min, 30 min, 1 h, 3 h, and 6 h after drug administration. […] Blood and brain samples were obtained at the same time points as above. Untreated plasma and blood samples were collected from three mice in the same cohort as the study animals for pre-dose (time 0) samples. Blood samples were collected by cardiac puncture and stored in tubes containing sodium heparin before being processed. Plasma was prepared and frozen for analysis. Brains were harvested, rinsed, patted dry, weighed, and frozen.
Matched matrix was used for preparation of calibration standards. Dosing solutions were normalized in matched matrix and analyzed in triplicate in the same analytical batch as the incurred samples.

[15] = tested on: Opioid, Mu (h); test: NovaScreen competition binding; parameters: species or system human; conditions: 1 µM
[16] = tested on: GABA, Chloride, TBOB Site; test: NovaScreen competition binding; conditions: 1 µM
[17] = tested on: Serotonin Transporter; test: NovaScreen competition binding; conditions: 1 µM
[18] = tested on: Dopamine, D3; test: NovaScreen competition binding; conditions: 1 µM
[19] = tested on: Serotonin, 5HT5A (h); test: NovaScreen competition binding; parameters: species or system human; conditions: 1 µM

C1=C(/c2cncnc2)CCCNCC/1 [TC299423, (E)-5-(pyrimidin-5-yl)-1,2,3,4,7,8-hexahydroazocine]
Duration of brain penetration and availability to nAChRs [1]: ≥ 20 min
[TC299423] in brain ([1]; 5 min): 45 ± 25 pmol/mg
[TC299423] in brain ([1]; 10 min): 88 ± 18 pmol/mg
[TC299423] in brain ([1]; 20 min): 73 ± 4.0 pmol/mg
[TC299423] in assay ([1]; 5 min): 2.2 ± 1.1 nM
[TC299423] in assay ([1]; 10 min): 4.4 ± 0.9 nM
[TC299423] in assay ([1]; 20 min): 3.7 ± 0.2 nM
Blood measurements: [TC299423] ([1]; 5 min): 250 ± 50 nM
Blood measurements: [TC299423] ([1]; 10 min): 370 ± 70 nM
Blood measurements: [TC299423] ([1]; 20 min): 120 ± 30 nM
Hit [2]: FALSE
Inhibition ([2]; [125I]-Conotoxin GVIA): -0.60%
Turnover by CYP1A2 [3]: 3 percent decline over 60 min
Turnover by CYP2C19 [4]: 4 percent decline over 60 min
Turnover by CYP3A4 [5]: 7 percent decline over 60 min
Turnover by CYP2C9 [6]: 8 percent decline over 60 min
Turnover by CYP2D6 [7]: 42 percent decline over 60 min
Half-life compared to varenicline [8]: ~7 fold
half-life [8]: 79 min
microsomal CLint ([8]; read-out: Clearance): 18 µL/min/mg
Half-life compared to varenicline [9]: ~7 fold
half-life [9]: 285 min
microsomal CLint ([9]; read-out: Clearance): 5 µL/min/mg
Hit [10]: FALSE
Inhibition ([10]; [3H]-(+)-Pentazocine): -0.52%
Hit [11]: FALSE
Inhibition ([11]; [3H]CGP 54626A): -2.43%
Ki ([12]; single component, cortical membranes): 0.24 ± 0.04 nM
Difference between Ki ([125I]epibatidine) and EC50 ([3H]dopamine release) ([12]; α4β2 nAChRs): ~500 fold
Hit [13]: FALSE
Inhibition ([13]; [125]I-Iodo-cyanopindolol): -8.25%
Maximum brain-tissue concentration ([14]; 0.3 mg/kg ip): 22 ± 0.43 ng/g
Maximum plasma concentration ([14]; 0.3 mg/kg ip): 49 ± 18 ng/mL
Time of maximum brain-tissue concentration ([14]; 0.3 mg/kg ip): 0.5 h
Maximum brain-tissue concentration ([14]; 0.3 mg/kg ip, converted): 0.12 µM
Maximum plasma concentration ([14]; 0.3 mg/kg ip, converted): 0.26 µM
Maximum brain-tissue concentration ([14]; 1 mg/kg oral): 42 ± 17 ng/g
Maximum plasma concentration ([14]; 1 mg/kg oral): 38 ± 10 ng/mL
Time of maximum brain-tissue concentration ([14]; 1 mg/kg oral): 0.25 h
Maximum brain-tissue concentration ([14]; 1 mg/kg oral, converted): 0.22 µM
Maximum plasma concentration ([14]; 1 mg/kg oral, converted): 0.20 µM
half-life ([14]; 0.3 mg/kg ip): 10.2 min
Tmax ([14]; 0.3 mg/kg ip): 4.8 min
half-life ([14]; 1 mg/kg oral): 67.2 min
Tmax ([14]; 1 mg/kg oral): 15 min
Time remaining in the brain ([14]; following ip injection or oral administration): at least 60 min
Hit [15]: FALSE
Inhibition ([15]; [3H]-Diprenorphine): -6.43%
Hit [16]: FALSE
Inhibition ([16]; [3H]TBOB): 6.83%
Hit [17]: FALSE
Inhibition ([17]; [3H]Citalopram, N-Methyl): 7.03%
Hit [18]: FALSE
Inhibition ([18]; [3H]7-OH-DPAT): -16.93%
Hit [19]: FALSE
Inhibition ([19]; [3H]-LSD): 1.24%
